Marks after values point to notes of the source that are not given here.

Three substances from patent publication EP0205308B1, “Scytophycins” (Moore, Richard Elliott, priority 1985, dated 1986) can be followed below.

Common to all, as to experiment: In vitro agar-diffusion test
Type in all cases: cell-based
(In general: A growth-free zone around the sample is the usual read-out of agar diffusion tests.)

Assay [1] concerns Sclerotina homoeocarpa X768. How it is done: (§1) The activity of scytophycin compounds against pathogenic fungi in standard in vitro agar-diffusion tests, using ¼"(6mm) discs holding ~30 µL of test solution, is illustrated in Tables 6-12.
Another assay has as its system Rhizoctonia solani X767. The method, then:
as §1

The subject of another assay is Pythium ultimum X751. How it is done: as §1
Another assay deals with Neurospora crassa X846. The method, then:
as §1

Another assay concerns Candida albicans X657. How it is done:
as §1

Assay [2] relates to Saccharomyces pastorianus X52. More on the design: key: T = trace. The method, then: as §1

For the substance Scytophycin C, the “Size of Zone of Inhibition (mm)” value in assay [1] (Table 12, 0.5 mg/mL) is recorded as 32 mm; with Rhizoctonia solani X767 (Table 12, 0.5 mg/mL), 30 mm; in the assay with Pythium ultimum X751 (Table 12, 0.5 mg/mL), 12^a mm; in the assay with Neurospora crassa X846 (Table 9, 1 mg/mL), 30 mm; in the assay with Candida albicans X657 (Table 9, 1 mg/mL), 22 mm; in assay [2] (Table 9, 1 mg/mL), 17 mm.
As to Scytophycin D, the “Size of Zone of Inhibition (mm)” value in assay [1] (Table 11, 0.33 mg/mL) is given as 20 mm; in assay [1] (Table 11, 1.0 mg/mL), 26 mm; with Rhizoctonia solani X767 (Table 11, 0.33 mg/mL), 22 mm; in the assay on Rhizoctonia solani X767 (Table 11, 1.0 mg/mL) it was 30 mm; in the assay on Pythium ultimum X751 (Table 11, 0.33 mg/mL) it was 24 mm; with Pythium ultimum X751 (Table 11, 1.0 mg/mL) it was 27 mm. The “Size of Zone of Inhibition (mm)” value is recorded as 20 mm in the assay on Neurospora crassa X846 (Table 8, 0.33 mg/mL); 25 mm with Neurospora crassa X846 (Table 8, 1 mg/mL); 14 mm in the assay on Candida albicans X657 (Table 8, 0.33 mg/mL); 19 mm with Candida albicans X657 (Table 8, 1 mg/mL); “T^a” in assay [2] (Table 8, 0.33 mg/mL); 12 mm in assay [2] (Table 8, 1 mg/mL).
As to Scytophycin E, the “Size of Zone of Inhibition (mm)” value in assay [1] (Table 11, 0.33 mg/mL) is 33 mm; in assay [1] (Table 11, 1.0 mg/mL), 35 mm; with Rhizoctonia solani X767 (Table 11, 0.33 mg/mL), 33 mm; with Rhizoctonia solani X767 (Table 11, 0.33 mg/mL, second value of the cell, after the zone marked overgrowth), 15 mm; in the assay on Rhizoctonia solani X767 (Table 11, 1.0 mg/mL), 46 mm; with Rhizoctonia solani X767 (Table 11, 1.0 mg/mL, second value of the cell, after the zone marked overgrowth), 25 mm. For the same substance, the “Size of Zone of Inhibition (mm)” value in the assay with Pythium ultimum X751 (Table 11, 0.33 mg/mL) is listed as 30 mm; in the assay on Pythium ultimum X751 (Table 11, 1.0 mg/mL), 40 mm; in the assay on Neurospora crassa X846 (Table 8, 0.33 mg/mL), 26 mm; with Neurospora crassa X846 (Table 8, 1 mg/mL) it was 36 mm; in the assay on Candida albicans X657 (Table 8, 0.33 mg/mL) it was 22 mm; in the assay with Candida albicans X657 (Table 8, 1 mg/mL) it was 21 mm. Further, the “Size of Zone of Inhibition (mm)” value in assay [2] (Table 8, 0.33 mg/mL) stood at 18 mm; in assay [2] (Table 8, 1 mg/mL), 23 mm.
